Legend:
[1] = system: Mycobacterium tuberculosis; assay: Antituberculosis activity against Mycobacterium tuberculosis H37Rv assessed as parasite growth inhibition at 25 ug/ml after 4 days by microplate alamar blue assay; format: functional; settings: 96 h, read-out: GI
Enterococcus faecalis = assay: Antibacterial activity against Enterococcus faecalis ATCC 29212 by radial diffusion assay; format: functional
Staphylococcus aureus = assay: Antibacterial activity against Staphylococcus aureus ATCC 65380 by radial diffusion assay; format: functional
[2] = system: Salmonella enterica subsp. enterica; assay: Antibacterial activity against Salmonella Typhimurium EG10627 by radial diffusion assay; format: functional, Salmonella enterica subsp. enterica serovar Typhimurium
[3] = system: Salmonella enterica subsp. enterica; assay: Antibacterial activity against Salmonella Typhimurium MS 7953 by radial diffusion assay; format: functional, Salmonella enterica subsp. enterica serovar Typhimurium
[4] = system: Mycobacterium tuberculosis; assay: Antituberculosis activity against Mycobacterium tuberculosis H37Rv assessed as parasite growth inhibition at 100 ug/ml after 4 days by microplate alamar blue assay; format: functional; settings: 96 h, read-out: GI
[5] = system: Mycobacterium tuberculosis; assay: Antituberculosis activity against Mycobacterium tuberculosis H37Rv assessed as parasite growth inhibition at 50 ug/ml after 4 days by microplate alamar blue assay; format: functional; settings: 96 h, read-out: GI
[6] = system: Salmonella enterica subsp. enterica; assay: Antibacterial activity against Salmonella Typhimurium ATCC 14028s by radial diffusion assay; format: functional, Salmonella enterica subsp. enterica serovar Typhimurium
Escherichia coli = assay: Antibacterial activity against Escherichia coli ATCC 25922 by radial diffusion assay; format: functional
[7] = Antiplatelet activity in rabbit platelets assessed as inhibition of PAF-induced platelet aggregation treated 5 mins before PAF challenge; format: functional, cell-based; settings: Oryctolagus cuniculus

| Structure (SMILES) | inhibition of growth at 25 µg/mL [1] | growth inhibition (GI) (Enterococcus faecalis) | growth inhibition (GI) (Staphylococcus aureus) | growth inhibition (GI) [2] | growth inhibition (GI) [3] | inhibition of growth at 100 µg/mL [4] | inhibition of growth at 50 µg/mL [5] | growth inhibition (GI) [6] | growth inhibition (GI) (Escherichia coli) | IC50 [7] |
| --- | --- | --- | --- | --- | --- | --- | --- | --- | --- | --- |
| C=C1C[C@@]23CC[C@H]4[C@@](C)(CCC[C@@]4(C)C(=O)O)[C@@H]2CC[C@@H]1C3 [KAURENOIC ACID] | 88.6% | <30% | <30% | <30% | <30% | 94.2% | 91.3% | <30% | <30% | – |
| C=CCC1=C[C@@]2(OC)[C@H](C)[C@@H](c3cc(OC)c4c(c3)OCO4)[C@H](C1=O)[C@@H]2O [CINERIN B] | 13.9% | <30% | <30% | <30% | <30% | 19.5% | 20.9% | <30% | <30% | 1.5 µM |
| C=CCC1=C[C@@]2(OC)C(=CC1=O)O[C@H](c1ccc(OC)c(OC)c1)[C@H]2C [KADSURENONE] | – | – | – | – | – | – | – | – | – | 0.12 µM |
| NNC(=O)c1ccncc1 [ISONIAZID] | 94.2% | – | – | – | – | – | – | – | – | – |
| C[C@@H]1C(=O)O[C@H]2[C@H](O)[C@@]34[C@H]5C[C@@H](C(C)(C)C)[C@]36[C@@H](OC(=O)[C@@H]6O)O[C@@]4(C(=O)O5)[C@@]12O [GINKOLIDE B] | – | – | – | – | – | – | – | – | – | 0.93 µM |
| C=CCC1=C[C@]2(OC)C(=O)[C@@](OC)(C1=O)[C@H](c1cc(OC)c3c(c1)OCO3)[C@H]2C [CINERIN A] | 2.5% | <30% | <30% | <30% | <30% | 8.1% | 7.2% | <30% | <30% | 16.8 µM |
| C=CCC1=C[C@@]2(OC)C(=O)[C@](OC)([C@H](c3cc(OC)c4c(c3)OCO4)[C@H]2C)[C@H]1O [CINERIN D] | 1.3% | <30% | <30% | <30% | <30% | 7.3% | 6.2% | <30% | <30% | 6.6 µM |
| C=CCC1=C[C@]2(OC)[C@H](C)[C@@H](c3cc(OC)c4c(c3)OCO4)[C@](OC)(C1=O)[C@H]2O [CINERIN C] | 43.8% | <30% | <30% | <30% | <30% | 49.4% | 49.8% | <30% | <30% | 1.1 µM |
| CO[C@H]1/C=C/O[C@@]2(C)Oc3c(C)c(O)c4c(O)c(c(/C=N/N5CCN(C)CC5)c(O)c4c3C2=O)NC(=O)/C(C)=C\C=C\[C@H](C)[C@H](O)[C@@H](C)[C@@H](O)[C@@H](C)[C@H](OC(C)=O)[C@@H]1C [RIFAMPIN] | 97.6% | – | – | – | – | – | – | – | – | – |
